# Source: patent publication US20160000823A1, “METHODS AND COMPOSITIONS FOR IMPROVING HEMOSTASIS” (Mast Therapeutics, Inc., priority 2014, published 2016)
# “Also recorded” adds a separate entry of the source.
# Legend:
# [1] = system: t-PA induced bleeding; assay: Rat tail bleeding model with tissue plasminogen activator; assay type: in vivo
# Method: Tissue plasminogen activator (t-PA) is used clinically to lyse occlusive thrombi. Bleeding complications that result from the unwanted lysis of hemostatic clots limits its use. TA is a synthetic derivative of the amino acid lysine that acts as a fibrinolytic inhibitor and is used clinically to antagonize unwanted bleeding. The effect oft-PA induced bleeding and its antagonism with TA was assessed in a rat tail bleeding model. Rats were anaesthetized by intraperitoneal injection of pentobarbital at 50 mg/kg. The thrombolytic agent t-PA was intravenously injected at a dose of 1 mg/kg, alone or in combination with TA at a dose of 5 mg/kg or 10 mg/kg. Another group of rats were administered 5 mg/kg TA alone. Control rats were administered saline. Each treatment group contained 7-10 rats.
# Following treatment, rat tails were amputated about 4 mm from the tip and the tails were immersed in normal saline at 37° C. The bleeding time was determined as the time for complete cessation of blood flow from the amputated tail by visual inspection.
# The relative ability of P188 to antagonize t-PA induced bleeding (compared to TA) was studied by evaluating P188 in the same rat tail bleeding model as described in Example 3. […]
# Rat tails were amputated about 4 mm from the tip and the tails were immersed in normal saline at 37° C. and bleeding time was assessed as described in Example 3. […]
# [2] = system: embolic middle cerebral artery occlusion; assay: Embolic MCAO stroke model: adhesive removal test; assay type: in vivo, rat
# Method: (§1) tPA is an effective treatment for acute stroke. Its use is limited by a narrow treatment window (3.5-4.5 hours from onset of stroke) and a greater risk of intracerebral hemnorrhage. […] To show this, the effects of administration of tPA alone, and tPA in combination with P188 were studied in a rat model of embolic middle cerebral artery occlusion. Male Wistar rats (N=10), 3-4 months old and weighing 350-400 g were subjected to embolic middle cerebral artery occlusion (MCAO) as described by Zhang (Zhang R L et al. A rat model of focal embolic cerebral ischemia. Brain Res. 1997, 766:83-92). Following occlusion, neurologic deficit was assessed 30 minutes after MCAO using a 5 point neurological scale (Longa scale; Longa et al., (1989) Stroke 20:84-91).
# (§2) To compare the two treatments, P188 in combination with tPA and tPA alone were administered according to the schedule provided in Table 2. The dose of P188 was administered in a volume of 1.0 ml infused over a period of 1 hr by intravenous (IV) infusion via a tail vein. […] At 1 and 7 days after stroke onset (MCAO), clinical neurological function was assessed using the adhesive removal test and modified neurological severity score (mNSS) (Li Y, Chen J, Wang L, Lu M, Chopp M. Treatment of stroke with intracarotid administration of marrow stromal cells. Neurology 2001, 56: 1666-1672). […]
# [3] = system: embolic middle cerebral artery occlusion; assay: Embolic MCAO stroke model: modified neurological severity score (mNSS); assay type: in vivo, rat; conditions: same schedule
# Method: as §1, §2
# [4] = system: embolic middle cerebral artery occlusion; assay: Embolic MCAO stroke model: lesion volume; assay type: in vivo, rat; conditions: day 7 after MCAO, H&E coronal sections
# Method: as §1, §2
# [5] = system: embolic middle cerebral artery occlusion; assay: Embolic MCAO stroke model: gross hemorrhage; assay type: in vivo, rat; conditions: day 7 after MCAO, n=10 per group
# Method: as §1
# as §2, with “2.” for “2. The dose of P188 was administered in a volume of 1.0 ml infused over a period of 1 hr by intravenous (IV) infusion via a tail vein.”
# The harvested brains also were assessed for the incidence of gross hemorrhage, defined as blood evident to the unaided eye on the H&E stained coronal sections. […]
Molecule,t-PA induced bleeding ([1]; t-PA 1 mg/kg IV in combination with TA 5 or 10 mg/kg (FIG. 14)),"bleeding time of amputated tail ([1]; t-PA alone 1 mg/kg IV, versus saline)","average time to tape removal ([2]; day 1 after MCAO, tPA 10 mg/kg IV at 4 hr, P188 300 mg/kg IV at 3.5 hr and 2,000 mg/kg ip at 9.5 hr)","average time to tape removal ([2]; day 7 after MCAO, same schedule)",average mNSS score ([3]; 1 day after MCAO),average mNSS score ([3]; 7 days after MCAO),average lesion volume [4],animals exhibiting gross hemorrhage [5] [%]
"NC[C@H]1CC[C@H](C(=O)O)CC1 [TA, tranexamic acid, reference compound]",dose dependent reduction,–,–,–,–,–,–,–
tissue plasminogen activator [t-PA],–,marked prolongation of bleeding time; also recorded: increased bleeding time,approximately 120 seconds,approximately 100 seconds,approximately 10.5,approximately 8.5,approximately 35 % of contralateral hemisphere,30
